# Target: T1, Human complement C1s enzyme (Homo sapiens, UniProt P09871)
# T1 construct: purified from human serum, Complement Technology, Inc; purchased Complement Technology, Inc; host or cells: human serum
# T1 sequence (P09871 438-688 limits assumed): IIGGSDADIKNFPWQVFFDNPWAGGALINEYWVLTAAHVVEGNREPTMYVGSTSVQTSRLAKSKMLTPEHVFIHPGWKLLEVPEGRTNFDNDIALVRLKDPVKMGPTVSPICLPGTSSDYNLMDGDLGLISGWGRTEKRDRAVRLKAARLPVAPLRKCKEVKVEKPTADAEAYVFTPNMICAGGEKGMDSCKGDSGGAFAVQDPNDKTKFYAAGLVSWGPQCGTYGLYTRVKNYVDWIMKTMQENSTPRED
# T1 sequence (P09871 16-437 partner limits assumed): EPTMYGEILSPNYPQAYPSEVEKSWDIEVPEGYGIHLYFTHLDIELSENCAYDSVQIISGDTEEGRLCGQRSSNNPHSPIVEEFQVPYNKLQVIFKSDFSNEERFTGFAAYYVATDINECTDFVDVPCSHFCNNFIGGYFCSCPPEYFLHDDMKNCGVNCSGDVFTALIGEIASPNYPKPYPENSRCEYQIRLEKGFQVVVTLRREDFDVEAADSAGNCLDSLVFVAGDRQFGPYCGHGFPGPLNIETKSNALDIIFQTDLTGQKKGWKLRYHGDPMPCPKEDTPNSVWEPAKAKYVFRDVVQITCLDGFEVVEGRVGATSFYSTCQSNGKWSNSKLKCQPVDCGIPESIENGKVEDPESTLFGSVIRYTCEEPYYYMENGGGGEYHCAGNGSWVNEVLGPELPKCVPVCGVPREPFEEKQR
# Assay: Human C1s Enzyme Assay
# Assay type: biochemical
# Settings: human C1s 1.16 nM, 5 min preincubation, substrate Z-L-Lys-SBzl 100 μM, A405; read-out: C1s Protease Activity
# Method: The assay of Example 3 was used to determine the IC50's of the compounds. Other standard complement assays are also available.
# Example 3. Human C1s Enzyme Assay
# Human complement C1s enzyme (purified from human serum, Complement Technology, Inc.) at 1.16 nM final concentration was incubated with test compound at various concentrations for 5 min at room temperature in 50 mM Tris, 1 M NaCl, pH 7.5. A synthetic substrate Z-L-Lys-SBzl and DTNB (Ellman's reagent) were added to final concentrations of 100 μM each. Absorbance at 405 nm (A405) was recorded at 30 second intervals for 30 min using a microplate spectrophotometer. IC50 values were calculated by nonlinear regression of complement C1s reaction rates as a function of test compound concentration.
row,IC50,Compound
1,> 1000 nM,"Cc1sc(CNC(=O)[C@@H]2C[C@]3(C)C[C@@H]3N2C(=O)CNC(=O)c2ccc(Oc3ccccc3)cc2)cc1C(=N)N [Compound 204, (1S,3S,5S)-N-((4-carbamimidoyl-5-methylthiophen-2-yl)methyl)-5-methyl-2-((4-phenoxybenzoyl)glycyl)-2-azabicyclo[3.1.0]hexane-3-carboxamide]"
2,< 100 nM,"C[C@@]12C[C@@H]1N(C(=O)CNC(=O)c1ccc(Oc3cccnc3)cc1)[C@H](C(=O)NCc1cc(C(=N)N)cs1)C2 [Compound 94, (1S,3S,5S)-N-[(4-carbamimidoylthiophen-2-yl)methyl]-5-methyl-2-(2-{[4-(pyridin-3-yloxy)phenyl]formamido}acetyl)-2-azabicyclo[3.1.0]hexane-3-carboxamide]"
3,< 100 nM,"N=C(N)c1csc(CNC(=O)[C@@H]2C[C@H](C(F)(F)F)CN2C(=O)CNC(=O)CCCOc2ccccc2)c1 [Compound 59, (2S,4S)-N-((4-carbamimidoylthiophen-2-yl)methyl)-1-((4-phenoxybutanoyl)glycyl)-4-(trifluoromethyl)pyrrolidine-2-carboxamide]"
4,< 100 nM,"C[C@@H](NC(=O)[C@@H]1C[C@](F)(CF)CN1C(=O)CNC(=O)c1ccc(C(=O)c2ccccc2)cc1)c1cc(C(=N)N)cs1 [Compound 202, (2S,4R)-1-((4-benzoylbenzoyl)glycyl)-N-((R)-1-(4-carbamimidoylthiophen-2-yl)ethyl)-4-fluoro-4-(fluoromethyl)pyrrolidine-2-carboxamide]"
5,< 100 nM,"C[C@@]12C[C@@H]1N(C(=O)CN1Cc3ccc(Oc4ccccc4)cc3C1=O)[C@H](C(=O)NCc1cc(C(=N)N)cs1)C2 [Compound 144, (1S,3S,5S)-N-[(4-carbamimidoylthiophen-2-yl)methyl]-5-methyl-2-[2-(1-oxo-6-phenoxy-3H-isoindol-2-yl)acetyl]-2-azabicyclo[3.1.0]hexane-3-carboxamide]"
6,> 1000 nM,"C[C@@]12C[C@@H]1N(C(=O)CNC(=O)c1ccc(Oc3ccccc3)cc1)[C@H](C(=O)NCc1ccc3onc(N)c3c1)C2 [Compound 67, (1S,3S,5S)-N-((3-aminobenzo[d]isoxazol-5-yl)methyl)-5-methyl-2-((4-phenoxy-benzoyl)glycyl)-2-azabicyclo[3.1.0]hexane-3-carboxamide]"
7,< 100 nM,"CC(=O)NCCOC[C@@]12C[C@@H]1N(C(=O)CNC(=O)c1ccc(Oc3ccccc3)cc1)[C@H](C(=O)N[C@H](C)c1cc(C(=N)N)cs1)C2 [Compound 141, (1S,3S,5R)-5-((2-acetamidoethoxy)methyl)-N-((R)-1-(4-carbamimidoylthiophen-2-yl)ethyl)-2-((4-phenoxybenzoyl)glycyl)-2-azabicyclo[3.1.0]hexane-3-carboxamide]"
8,< 100 nM,"O=C(NCC(=O)N1CC2(C[C@H]1C(=O)NCc1cc(-c3ncc[nH]3)cs1)OCCO2)c1ccc(Oc2ccccc2)cc1 [Compound 259, (S)-N-((4-(1H-imidazol-2-yl)thiophen-2-yl)methyl)-7-((4-phenoxybenzoyl)glycyl)-1,4-dioxa-7-azaspiro[4.4]nonane-8-carboxamide]"
9,100 to 1000 nM,"N=C(N)c1csc(CNC(=O)[C@@H]2CC3(CCCC3)CN2C(=O)CNC(=O)CCCOc2ccccc2)c1 [Compound 82, (S)-N-((4-carbamimidoylthiophen-2-yl)methyl)-2-((4-phenoxybutanoyl)glycyl)-2-azaspiro[4.4]nonane-3-carboxamide]"
10,> 1000 nM,"C[C@@]12C[C@@H]1N(C(=O)CNC(=O)c1ccc(Oc3ccccc3)cc1)[C@H](C(=O)NCc1cc(/C(N)=N/S(C)(=O)=O)cs1)C2 [Compound 13, (1S,3S,5S)-5-methyl-N-((4-((Z)-N′-(methylsulfonyl)carbamimidoyl)thiophen-2-yl)-methyl)-2-((4-phenoxybenzoyl)glycyl)-2-azabicyclo[3.1.0]hexane-3-carboxamide]"
11,> 1000 nM,"N=C(N)c1csc(NC(=O)C[C@@H]2CCCN2C(=O)CNC(=O)c2ccc(Oc3ccccc3)cc2)c1 [Compound 40, N-{2-[(2S)-2-{[(4-carbamimidoylthiophen-2-yl)carbamoyl]methyl}pyrrolidin-1-yl]-2-oxoethyl}-4-phenoxybenzamide]"
12,> 1000 nM,"N=C(N)c1csc([C@@H](NC(=O)[C@@H]2CC3(CN2C(=O)CNC(=O)CCCOc2ccccc2)OCCO3)C2CCCC2)c1 [Compound 179, (S)-N-((S)-(4-carbamimidoylthiophen-2-yl)(cyclopentyl)methyl)-7-((4-phenoxybutanoyl)glycyl)-1,4-dioxa-7-azaspiro[4.4]nonane-8-carboxamide]"
13,< 100 nM,"N=C(N)c1csc(CNC(=O)[C@@H]2C[C@@H](c3ccccc3)CN2C(=O)CNC(=O)CCCOc2ccccc2)c1 [Compound 156, (2S,4S)-N-((4-carbamimidoylthiophen-2-yl)methyl)-1-((4-phenoxybutanoyl)glycyl)-4-phenylpyrrolidine-2-carboxamide]"
14,< 100 nM,"N=C(N)c1csc(CNC(=O)[C@@H]2C[C@](F)(CF)CN2C(=O)CNC(=O)CCCOc2ccccc2)c1 [Compound 33, (2S,4R)-N-((4-carbamimidoylthiophen-2-yl)methyl)-4-fluoro-4-(fluoromethyl)-1-((4-phenoxybutanoyl)glycyl)pyrrolidine-2-carboxamide]"
15,< 100 nM,"C[C@H](Oc1ccc(C(=O)NCC(=O)N2[C@H]3C[C@@]3(C)C[C@H]2C(=O)NCc2cc(C(=N)N)cs2)cc1)c1ccccc1 [Compound 212, (1S,3S,5S)-N-((4-carbamimidoylthiophen-2-yl)methyl)-5-methyl-2-((4-((S)-1-phenylethoxy)benzoyl)glycyl)-2-azabicyclo[3.1.0]hexane-3-carboxamide]"
16,< 100 nM,"CC(C)O[C@@H]1C[C@@H](C(=O)N[C@H](C)c2cc(C(=N)N)cs2)N(C(=O)CNC(=O)CCCOc2ccccc2)C1 [Compound 166, (2S,4R)-N-((R)-1-(4-carbamimidoylthiophen-2-yl)ethyl)-4-isopropoxy-1-((4-phenoxybutanoyl)glycyl)pyrrolidine-2-carboxamide]"
17,< 100 nM,"CO[C@@H]1C[C@@H](C(=O)NCc2cc(C(=N)N)cs2)N(C(=O)CNC(=O)CCCOc2ccccc2)C1 [Compound 27, (2S,4R)-N-((4-carbamimidoylthiophen-2-yl)methyl)-4-methoxy-1-((4-phenoxy-butanoyl)glycyl)pyrrolidine-2-carboxamide]"
18,> 1000 nM,"C[C@@]12C[C@@H]1N(C(=O)CNC(=O)c1ccc(Oc3ccccc3)cc1)[C@H](C(=O)NCc1cc(/C(N)=N/NS(=O)(=O)c3ccccc3)cs1)C2 [Compound 139, (1S,3S,5S)-N-((4-(imino(2-(phenylsulfonyl)hydrazineyl)methyl)thiophen-2-yl)methyl)-5-methyl-2-((4-phenoxybenzoyl)glycyl)-2-azabicyclo[3.1.0]hexane-3-carboxamide]"
19,< 100 nM,"C[C@@H](NC(=O)[C@@H]1C[C@@H](Oc2ccccc2)CN1C(=O)CNC(=O)c1ccc(Oc2ccccc2)cc1)c1cc(C(=N)N)cs1 [Compound 181, (2S,4R)-N-((R)-1-(4-carbamimidoylthiophen-2-yl)ethyl)-4-phenoxy-1-((4-phenoxybenzoyl)glycyl)pyrrolidine-2-carboxamide]"
20,< 100 nM,"N=C(N)c1csc(CNC(=O)[C@@H]2C[C@]3(CO)C[C@@H]3N2C(=O)CNC(=O)c2ccc(Oc3ccccc3)cc2)c1 [Compound 9, (1S,3S,5R)-N-((4-carbamimidoylthiophen-2-yl)methyl)-5-(hydroxymethyl)-2-((4-phenoxybenzoyl)glycyl)-2-azabicyclo[3.1.0]hexane-3-carboxamide]"
21,< 100 nM,"N=C(N)c1csc(CNC(=O)[C@@H]2C[C@](F)(CN)CN2C(=O)CNC(=O)CCCOc2ccccc2)c1 [Compound 109, (2S,4S)-4-(aminomethyl)-N-((4-carbamimidoylthiophen-2-yl)methyl)-4-fluoro-1-((4-phenoxybutanoyl)glycyl)pyrrolidine-2-carboxamide]"
22,< 100 nM,"Cc1cccc(O[C@@H]2C[C@@H](C(=O)N[C@H](C)c3cc(C(=N)N)cs3)N(C(=O)CNC(=O)CCCOc3ccccc3)C2)c1 [Compound 118, (2S,4R)-N-((R)-1-(4-carbamimidoylthiophen-2-yl)ethyl)-1-((4-phenoxybutanoyl)-glycyl)-4-(m-tolyloxy)pyrrolidine-2-carboxamide]"
23,< 100 nM,"C[C@@]12C[C@@H]1N(C(=O)CNC(=O)c1ccc(OC3CCCCC3)cc1)[C@H](C(=O)NCc1cc(C(=N)N)cs1)C2 [Compound 160, (1S,3S,5S)-N-((4-carbamimidoylthiophen-2-yl)methyl)-2-((4-(cyclohexyloxy)benzoyl)glycyl)-5-methyl-2-azabicyclo[3.1.0]hexane-3-carboxamide]"
